Measurements published in patent publication US20080033046A1, “Treatment of myocardial infarction with 11HSD1 inhibitors” (University of Edinburgh, priority 2004, published 2008).
Entries after “also recorded” stand apart in the source; their conditions may differ.

Tests used:
mouse aortic rings [1] = test: Angiogenesis in mouse aortic rings embedded in Matrigel (new vessel count); format: cell-based; conditions: for effect on the angiostatic effect of corticosterone / direct effect on angiogenesis in aortic rings (drug alone): drug 10^−6 M; for effect on the angiostatic effect of corticosterone: corticosterone 600 nM; for direct effect on angiogenesis in aortic rings (drug alone): no glucocorticoid
Experimental: Mice were killed humanely and thoracic aortae were removed, washed in serum free MCDB 131 medium (Invitrogen, UK), cleaned of periadventitial tissue and divided into 1-3 mm rings.
To quantify angiogenesis aortic rings were embedded in 200 μl of steroid free Matrigel (Becton Dickinson, UK) and incubated at 37° C. in serum free MCDB 131, with heparin, ascorbic acid, and GA1000 (Cambrex Biosciences, UK) in the presence and absence of: corticosterone (3 nM, 30 nM, 300 nM, 600 nM); 11-dehydrocorticosterone (300 nM, 60 nM); the glucocorticoid receptor antagonist, RU38486 (10^−6M)^59, the mineralocorticoid receptor antagonist, spironolactone (10^−6 M)^60; and/or the […] 11βHSD inhibitor, carbenoxolone (10^−4-10^−6M)^31. All drugs (Sigma-Aldrich, UK) were dissolved in ethanol and diluted in aqueous solution; final ethanol concentration 1-3% v/v. Media were changed every 48 hours. Experiments were performed in triplicate. In initial experiments, new vessels were counted daily using light microscopy (FIG. 1). From these studies day 7 was selected as the appropriate time point to examine the effects of glucocorticoids (FIG. 1c).
To confirm the nature of apparent new vessels, endothelial cells were identified by uptake of fluorescent-labelled acetylated low-density lipoprotein (DiI-Ac-LDL)(Biogenesis, Dorset UK) FIG. 1b).

[2] = tested on: subcutaneous sponge implants in mice; test: Subcutaneous sponge implant assay (vessel density, Chalkley counts); format: in vivo, mouse; conditions: 20 days; for effect of steroid-impregnated sponge on angiogenesis in vivo: 2 mg steroid in silastic insert
Experimental: (§1) Mice were anaesthetized with halothane and a sterilised sponge cylinder (0.5 cm×1 cm) (Caligen-Foam Ltd., UK) was implanted subcutaneously on each flank. Sponges contained a silastic insert (Silastic 20 medical grade, Dow Corning Corporation, USA) impregnated with vehicle, 2 mg of cortisol or cortisone, or 5 mg of RU38486. […] Such inserts release their impregnated compounds in vivo at a constant rate for 3 weeks. Human steroids (cortisol and cortisone, equivalent to corticosterone and 11-dehydrocorticosterone) were used to allow distinction from endogenous steroids. In separate experiments (not shown) angiogenesis in placebo-impregnated sponges was not altered by the presence or absence of a contralateral steroid-treated sponge.
(§2) Twenty days following implantation, mice were decapitated, sponges excised and inserts removed. Sponges were bisected; one half was fixed in 10% formalin and embedded in paraffin wax. Sections (8 μm) were stained with haematoxylin and eosin (H&E). The second half of the sponge was weighed, homogenised in 2 ml sterile phosphate buffered saline at 4° C. and centrifuged (2000 g; 30 minutes). Steroids were extracted from the supernatant using ethyl acetate and cortisol quantified using a specific radioimmunoassay (Amersham Pharmacia Biotech, UK). Sponge vessel density was determined by using the mean of triplicate Chalkley counts on 2 sections per sponge.

mouse aortic rings [3] = test: Angiogenesis in mouse aortic rings embedded in Matrigel (new vessel count); format: cell-based; conditions: wild type rings, drug 10^−6 M, 11-dehydrocorticosterone 600 nM
in vivo = conditions: mouse; for concentration at 20 days: Cortisol level
Experimental: as §1, §2

[4] = aortic rings from 11βHSD-1 −/− mice, glucocorticoid 600 nM, compared with wild type
[5] = wild type C57B16 aortic rings, 7-day incubation, physiological concentrations (up to 600 nM)
[6] = wild type rings, listed as Carbenoxolone

C[C@]12CC(=O)[C@H]3[C@@H](CCC4=CC(=O)CC[C@@]43C)[C@@H]1CC[C@@H]2C(=O)CO [11-dehydrocorticosterone]
effect of glucocorticoid on angiogenesis in aortic rings (mouse aortic rings [1]; [4]): did not inhibit angiogenesis | effect of glucocorticoid on angiogenesis in aortic rings (mouse aortic rings [1]; [5]): inhibited angiogenesis; also recorded: angiostatic effect

CC#C[C@]1(O)CC[C@H]2[C@@H]3CCC4=CC(=O)CCC4=C3[C@@H](c3ccc(N(C)C)cc3)C[C@@]21C [RU38486]
effect on the angiostatic effect of corticosterone (mouse aortic rings [1]; wild type rings): prevented | direct effect on angiogenesis in aortic rings (drug alone) (mouse aortic rings [1]; wild type rings): did not affect; also recorded: no effect | new vessel formation in RU38486 impregnated sponges versus contralateral controls ([2]; wild type C57B16 mice, 5 mg in silastic insert): increased; also recorded: greater | effect on the angiostatic effect of 11-dehydrocorticosterone (mouse aortic rings [3]): prevented

CC1(C)[C@@H](OC(=O)CCC(=O)O)CC[C@]2(C)[C@H]3C(=O)C=C4[C@@H]5C[C@@](C)(C(=O)O)CC[C@]5(C)CC[C@@]4(C)[C@]3(C)CC[C@@H]12 [carbenoxolone]
effect on angiogenesis in aortic rings at high concentration (mouse aortic rings [1]; wild type rings, 10^−4 M): abolished angiogenesis | effect on the angiostatic effect of corticosterone (mouse aortic rings [1]; wild type rings): did not potentiate; also recorded: did not influence | effect on the angiostatic effect of corticosterone (mouse aortic rings [1]; [6]): no effect | direct effect on angiogenesis in aortic rings (drug alone) (mouse aortic rings [1]; wild type rings): no direct effect | direct effect on angiogenesis in aortic rings (drug alone) (mouse aortic rings [1]; [6]): no effect | effect on the angiostatic effect of 11-dehydrocorticosterone (mouse aortic rings [3]): prevented

C[C@]12C[C@H](O)[C@H]3[C@@H](CCC4=CC(=O)CC[C@@]43C)[C@@H]1CC[C@@H]2C(=O)CO [corticosterone]
effect of glucocorticoid on angiogenesis in aortic rings (mouse aortic rings [1]; [4]): inhibited to a similar degree; also recorded: not different between strains | effect of glucocorticoid on angiogenesis in aortic rings (mouse aortic rings [1]; [5]): inhibited angiogenesis

C[C@]12CCC(=O)C=C1CC[C@@H]1[C@@H]2[C@@H](O)C[C@@]2(C)[C@H]1CC[C@]2(O)C(=O)CO [cortisol]
effect of steroid-impregnated sponge on angiogenesis in vivo ([2]; 11βHSD-1 −/− mice): inhibited angiogenesis to a similar degree | effect of steroid-impregnated sponge on angiogenesis in vivo ([2]; 11βHSD-1 −/− mice, listed as Cortisol): inhibited angiogenesis | effect of steroid-impregnated sponge on angiogenesis in vivo ([2]; wild type C57B16 mice): inhibited angiogenesis | concentration at 20 days (in vivo; 11bHSD-1 −/−, contralateral placebo treated sponge): 135 ± 46 ng/g | concentration at 20 days (in vivo; 11bHSD-1 −/−, ipsilateral steroid treated sponge): 3780 ± 1700 ng/g | sponge cortisol concentrations, in words (in vivo): similar | concentration at 20 days (in vivo; wild type, contralateral placebo treated sponge): 161 ± 18 ng/g | concentration at 20 days (in vivo; wild type, ipsilateral steroid treated sponge): 4270 ± 186 ng/g

C[C@]12CCC(=O)C=C1CC[C@@H]1[C@@H]2C(=O)C[C@@]2(C)[C@H]1CC[C@]2(O)C(=O)CO [cortisone]
effect of steroid-impregnated sponge on angiogenesis in vivo ([2]; 11βHSD-1 −/− mice): did not inhibit angiogenesis; also recorded: only in wild type mice | effect of steroid-impregnated sponge on angiogenesis in vivo ([2]; wild type C57B16 mice): inhibited angiogenesis | sponge cortisol concentrations after impregnation with cortisone compared with cortisol, in words (in vivo): lower | sponge cortisol concentrations, in words (in vivo): did not elevate

CC(=O)S[C@@H]1CC2=CC(=O)CC[C@]2(C)[C@H]2CC[C@@]3(C)[C@@H](CC[C@@]34CCC(=O)O4)[C@H]12 [spironolactone]
effect on the angiostatic effect of corticosterone (mouse aortic rings [1]; wild type rings): no effect | direct effect on angiogenesis in aortic rings (drug alone) (mouse aortic rings [1]; wild type rings): no effect | effect on the angiostatic effect of 11-dehydrocorticosterone (mouse aortic rings [3]): no effect
